In US5292521A, “Solid oral preparation containing a pyrrolidine derivative with a catechol group” (priority 1990, dated 1994):
Where two headings read alike, the source gives them in different places.

Columns and labels:
[1] = Oral administration to fasted beagles with L-cysteine or L-aspartic acid, plasma drug disposition parameters (Experimental Example 4); assay type: in vivo; conditions: for AUC(0-t) at 8 h / Cmax / Tmax: dog, plasma, po, 3 mg/kg; for AUC(0-t) at 8 h: read-out: AUC (0-8 hr) mean ± SE; for Cmax: read-out: Cmax mean ± SE; for Tmax: read-out: Tmax mean ± SE
Procedure: A similar mixture to that described above was prepared except that L-cysteine was replaced by 350 mg of L-aspartic acid.
(§1) (a) Administration and collection of blood sample
An internal standard substance (IS 20 ng in 200 μl) was added to 1 ml of blood plasma. After dilution with 2 ml of water, the aqueous solution was passed through a BONDELUTE (trade name) C18 column previously washed with 3 ml of methanol containing 0.1% of acetic acid and 9 ml of water. After further washing with 9 ml of water and 2 ml of acetonitrile, the sample was eluted with 1.2 ml of methanol containing 0.1% of perchloric acid. The solvent was distilled off and the residue was dissolved in 200 μl of a 0.1% acetic acid aqueous solution/methanol mixture (2/1, V/V). 50 to 100 μl thereof was injected into an instrument for HPLC for determination. Separately, blood plasma containing known amounts of compound (IX) and IS was treated to prepare an addition/recovery calibration curve. The concentration was determined from the ratio of the peak height of compound (IX) to that of IS. The detection limit in this method was 0.05 ng/ml of plasma.
(§2) (c) HPLC determination conditions
(§3) A HPLC pump used was CCPD mfd. by Toyo Soda Mfg. Co., Ltd. 1.35 ml/min of an aqueous solution containing 0.1% of perchloric acid and 0.01% of a disodium ethylenediaminetetraacetate/methanol mixture 80:9 (V/V) was introduced therein. The sample was injected into the instrument with a WISP 710B auto-sampler mfd. by Waters at intervals of about 50 minutes. A reversed phase ODS-120 T column (4.6×250 mm) with a prefilter was used as the analysis column. The detector used was an ECD-100 electrochemical detector mfd. by Acome. The voltage was +650 mV (against a SEC electrode).

[2] = Oral administration to fasted beagles with ascorbic, citric or tartaric acid, plasma drug disposition parameters (Experimental Example 3); assay type: in vivo; conditions: for AUC(0-t) at 6 h / Cmax / Tmax: dog, plasma, po, 3 mg/kg, n=4; for AUC(0-t) at 6 h: read-out: AUC (0-6 hr) mean ± SE; for Cmax: read-out: Cmax mean ± SE; for Tmax: read-out: Tmax mean ± SE (converted)
From the text: Compound (IX) and ascorbic acid, citric acid or tartaric acid were weighed, pulverized thoroughly and mixed together in an agate mortar. The mixture was divided into portions and filled in gelatin capsules (No. 1 or No. 00) and the gap in each capsule was further filled with lactose to obtain a sample. Separately, compound (IX) was formulated into a powder of five-fold dilution with lactose and filled in capsules in a similar manner to that described above to obtain a control sample.
The dose of compound (IX) was adjusted to 3 mg/kg in all the cases, while that of ascorbic acid was adjusted to three levels, i.e. 3 mg/kg, 9 mg/kg and 15 mg/kg and that of each of citric acid and tartaric acid was adjusted to one level of 15 mg/kg.
as §1
The capsule of compound (IX) was given to each of 4 beagles (average body weight 9.53 kg) together with 30 ml of water by oral administration after fasting overnight (14 hours). The experiment was conducted by the crossover administration method while the beagles were kept fasting.
An internal standard substance (IS 50 ng in 50 μl) was added to 1 ml of blood plasma. After extraction with 5 ml of ethyl acetate, the solvent was distilled off. 100 μl of a citrate buffer solution (pH 3.5) was added thereto to form a solution again, which was washed with 1 ml of diethyl ether. The lower layer was separated and 50 μl of methanol was added thereto. 50 to 100 μl thereof was injected into an instrument for high-performance liquid chromatography (HPLC) for determination. Separately, blood plasma containing known amounts of compound (IX) and IS was treated to prepare an addition/recovery calibration curve. The concentration was determined from the ratio of the peak height of compound (IX) to that of IS. The detection limit in this method was 0.2 ng/ml of plasma.
as §2
as §3, with “1.5” for “1.35”, “of” for “of an aqueous solution containing 0.1% of perchloric acid and 0.01% of”, “citrate buffer (pH 3.5)/methanol” for “disodium ethylenediaminetetraacetate/methanol”, “80:1” for “80:9”, “Nucleosil (trade name) 7C6H5” for “ODS-120 T”
The citrate buffer solution (pH 3.5) was prepared by dissolving 26.25 g of citric acid, 16.58 g of anhydrous sodium acetate, 12.25 g of sodium hydroxide, 0.8375 g of disodium ethylenediaminetetraacetate, 93.8 ml of glacial acetic acid and 35.9 ml of 60% perchloric acid in 2500 ml of distilled water.
The AUC value in the period of 0 to 6 hours was determined from each of these curves. The results are given in FIG. 6, which is a bar graph for the comparison of the AUC values of the respective samples.

[3] = 3 mg/kg oral + L-aspartic acid 15 mg/kg, n=2
[4] = 3 mg/kg oral + L-cysteine 15 mg/kg, n=2
[5] = 3 mg/kg oral, none (control), n=4
[6] = 3 mg/kg oral + ascorbic acid 3 mg/kg (1:1)
[7] = 3 mg/kg oral + ascorbic acid 9 mg/kg (1:3)
[8] = 3 mg/kg oral + ascorbic acid 15 mg/kg (1:5)
[9] = 3 mg/kg oral + citric acid 15 mg/kg (1:5)
[10] = 3 mg/kg oral + tartaric acid 15 mg/kg (1:5)
[11] = 3 mg/kg oral, no organic acid (control)

Oc1ccc([C@@H]2CNC[C@H]2c2cccc(O)c2Cl)cc1O (relative stereo) [compound (IX)]
Addition effect (AUC ratio) ([1]; 3 mg/kg oral + L-aspartic acid 15 mg/kg): 2.46 | Addition effect (AUC ratio) ([1]; 3 mg/kg oral + L-cysteine 15 mg/kg): 1.59 | Addition effect (AUC ratio) ([1]; 3 mg/kg oral, none (control)): 1.00 | effect relative to that obtained by adding tartaric acid ([1]; L-cysteine and L-aspartic acid): ~2.7 times | AUC(0-t) at 8 h [1, 3]: 37.5 ± 0.2 ng·h/mL | Cmax [1, 3]: 48.2 ± 2.5 ng/mL | Tmax [1, 3]: 45 ± 15 min | AUC(0-t) at 8 h [1, 4]: 24.4 ± 1 ng·h/mL | Cmax [1, 4]: 15.3 ± 2.7 ng/mL | Tmax [1, 4]: 70.2 ± 50.4 min | Cmax [1, 5]: 21 ± 5.3 ng/mL | Tmax [1, 5]: 43.8 ± 16.8 min | increase of AUC value ([1]; with L-aspartic acid): 2.46 -fold | increase of AUC value ([1]; with L-cysteine): 1.59 -fold | Addition effect ratio ([2]; 3 mg/kg oral + ascorbic acid 3 mg/kg (1:1), AUC ratio to no additive): 1.9 | Addition effect ratio ([2]; 3 mg/kg oral + ascorbic acid 9 mg/kg (1:3), AUC ratio to no additive): 4.8 | increase of AUC value vs no added acid ([2]; 3 mg/kg oral + ascorbic acid 15 mg/kg): 7 -fold | Addition effect ratio ([2]; 3 mg/kg oral + ascorbic acid 15 mg/kg (1:5), AUC ratio to no additive): 7.0 | Addition effect ratio ([2]; 3 mg/kg oral + citric acid 15 mg/kg (1:5), AUC ratio to no additive): 3.3 | Addition effect ratio ([2]; 3 mg/kg oral + tartaric acid 15 mg/kg (1:5), AUC ratio to no additive): 2.7 | Addition effect ratio ([2]; 3 mg/kg oral, no organic acid, base): 1.0 | AUC(0-t) at 6 h [2, 6]: 28.4 ± 6.5 ng·h/mL | Cmax [2, 6]: 33.8 ± 13.2 ng/mL | Tmax [2, 6]: 34 min | AUC(0-t) at 6 h [2, 7]: 72.6 ± 18.5 ng·h/mL | Cmax [2, 7]: 187 ± 91.7 ng/mL | Tmax [2, 7]: 43 min | AUC(0-t) at 6 h [2, 8]: 107 ± 14.6 ng·h/mL | Cmax [2, 8]: 139 ± 20.9 ng/mL | Tmax [2, 8]: 55 min | AUC(0-t) at 6 h [2, 9]: 50.7 ± 16.5 ng·h/mL | Cmax [2, 9]: 87.4 ± 30.2 ng/mL | Tmax [2, 9]: 29 min | AUC(0-t) at 6 h [2, 10]: 40.4 ± 7.8 ng·h/mL | Cmax [2, 10]: 61.5 ± 26.3 ng/mL | Tmax [2, 10]: 45 min | AUC(0-t) at 6 h [2, 11]: 15.2 ± 2.8 ng·h/mL | Cmax [2, 11]: 21 ± 5.3 ng/mL | Tmax [2, 11]: 44 min | increase of AUC value vs no added acid ([2]; with citric acid): 3.3 -fold | increase of AUC value vs no added acid ([2]; with tartaric acid): 2.7 -fold
